Here are results for 37 compounds from US5635477A, “Cyclic compounds useful as inhibitors of platelet glycoprotein IIB/IIIA” (The DuPont Merck Pharmaceutical Company, priority 1995, dated 1997).

Starred links: 1 amine or outer side, 2 acyl side, 3 side chain; linkers in the order of their positions; H or OH if unused. Non-standard residues stand in square brackets, D forms with d. Residues, ends and D or L forms follow the SMILES beside them. NMePhe(4-CH2NH2) = CN[C@@H](Cc1ccc(CN)cc1)C(=O)O; X5 = O=C(c1ccc(I)c(CN[*:1])c1)[*:2]; NMeOrn(Me) = CNCCC[C@H](NC)C(=O)O; NMeR = CN[C@@H](CCCNC(=N)N)C(=O)O; dPhg = N[C@@H](C(=O)O)c1ccccc1; dNle = CCCC[C@@H](N)C(=O)O; 3Amb = NCc1cccc(C(=O)O)c1; dAbu = CC[C@@H](N)C(=O)O; βAla = NCCC(=O)O; Sar = CNCC(=O)O

The assay has as its target agonist-induced platelet aggregation (Homo sapiens, UniProt P05106+P08514). As to the kind of experiment: Platelet Aggregation Assay. The assay is classed as cell-based. To be noted: human PRP; agonist-induced aggregation. As to the method: Blood was collected into 10 ml citrated Vacutainer tubes.

Sequence of agonist-induced platelet aggregation (P08514 32-1039): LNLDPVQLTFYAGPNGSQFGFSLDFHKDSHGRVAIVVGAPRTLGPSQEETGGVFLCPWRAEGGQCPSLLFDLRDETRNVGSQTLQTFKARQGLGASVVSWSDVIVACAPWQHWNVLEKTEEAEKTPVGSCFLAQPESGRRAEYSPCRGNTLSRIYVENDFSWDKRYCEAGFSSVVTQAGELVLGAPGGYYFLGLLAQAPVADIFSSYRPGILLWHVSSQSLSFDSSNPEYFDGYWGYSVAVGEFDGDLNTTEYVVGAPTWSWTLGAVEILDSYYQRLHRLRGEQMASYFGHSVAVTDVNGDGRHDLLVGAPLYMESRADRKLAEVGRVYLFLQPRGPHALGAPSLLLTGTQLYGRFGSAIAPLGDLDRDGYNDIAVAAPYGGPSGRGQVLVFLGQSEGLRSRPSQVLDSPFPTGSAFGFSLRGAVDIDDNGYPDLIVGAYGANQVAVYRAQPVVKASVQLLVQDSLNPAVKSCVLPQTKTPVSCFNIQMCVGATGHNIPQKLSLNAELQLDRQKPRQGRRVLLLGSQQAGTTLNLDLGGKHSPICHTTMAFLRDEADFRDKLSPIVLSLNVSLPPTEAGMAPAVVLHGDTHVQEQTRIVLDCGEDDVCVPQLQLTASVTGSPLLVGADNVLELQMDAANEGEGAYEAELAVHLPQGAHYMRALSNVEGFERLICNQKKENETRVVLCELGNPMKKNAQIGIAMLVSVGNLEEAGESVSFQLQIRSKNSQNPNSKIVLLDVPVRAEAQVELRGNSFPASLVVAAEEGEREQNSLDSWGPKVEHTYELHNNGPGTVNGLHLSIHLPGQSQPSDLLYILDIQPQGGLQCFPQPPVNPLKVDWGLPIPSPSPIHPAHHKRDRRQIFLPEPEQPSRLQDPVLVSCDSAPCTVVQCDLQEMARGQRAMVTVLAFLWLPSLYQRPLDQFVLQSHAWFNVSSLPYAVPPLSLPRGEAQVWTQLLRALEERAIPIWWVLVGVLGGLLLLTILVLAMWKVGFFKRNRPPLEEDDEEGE
Sequence of agonist-induced platelet aggregation (P05106 27-788): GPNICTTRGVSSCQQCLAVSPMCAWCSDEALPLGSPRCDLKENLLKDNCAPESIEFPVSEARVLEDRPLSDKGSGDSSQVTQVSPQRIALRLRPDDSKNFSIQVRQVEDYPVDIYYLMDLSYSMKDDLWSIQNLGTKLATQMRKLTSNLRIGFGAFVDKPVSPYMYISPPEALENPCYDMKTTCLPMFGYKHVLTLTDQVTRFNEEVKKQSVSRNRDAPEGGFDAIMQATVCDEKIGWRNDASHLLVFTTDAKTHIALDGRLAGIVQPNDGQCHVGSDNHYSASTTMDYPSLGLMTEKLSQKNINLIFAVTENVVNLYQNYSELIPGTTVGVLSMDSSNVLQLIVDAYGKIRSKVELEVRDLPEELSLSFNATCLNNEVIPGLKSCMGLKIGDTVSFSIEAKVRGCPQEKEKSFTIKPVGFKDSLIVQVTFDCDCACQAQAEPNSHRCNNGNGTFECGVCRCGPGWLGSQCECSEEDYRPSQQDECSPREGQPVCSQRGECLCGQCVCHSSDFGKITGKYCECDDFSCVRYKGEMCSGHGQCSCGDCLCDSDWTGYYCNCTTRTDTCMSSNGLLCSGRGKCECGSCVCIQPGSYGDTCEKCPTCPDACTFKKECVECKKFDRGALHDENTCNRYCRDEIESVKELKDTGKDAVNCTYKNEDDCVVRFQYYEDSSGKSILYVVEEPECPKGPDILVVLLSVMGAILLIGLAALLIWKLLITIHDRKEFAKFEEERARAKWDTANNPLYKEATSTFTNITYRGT

The compound `CC(C)[C@H]1NC(=O)c2cccc(c2)CNC(=O)C(C)(CC(=O)O)NC(=O)CNC(=O)[C@H](CCCNC(=N)N)N(C)C1=O` (single isomer, unassigned) [Example 63, cyclo-(D-Val-NMeArg-Gly-α-MeAsp-Mamb)] showed an IC50 of 1000 to 10000 nM.
As for `CC(C)[C@H]1NC(=O)c2cccc(c2)CNC(=O)C(C)(CC(=O)O)NC(=O)CNC(=O)[C@H](CCCNC(=N)N)N(C)C1=O` (single isomer, unassigned) [Example 63a, cyclo-(D-Val-NMeArg-Gly-α-MeAsp-Mamb)], the figure is 10000 to 100000 nM; as for `CC(C)[C@H]1NC(=O)c2ccc3c(c2)C(CCC3)NC(=O)[C@H](CC(=O)O)NC(=O)CNC(=O)[C@H](CCCNC(=N)N)N(C)C1=O` (single isomer, unassigned) [Example 89a, cyclo-(D-Val-NMeArg-Gly-Asp-aminotetralincarboxylic acid)], less than 1000 nM; as for `CC(C)[C@H]1NC(=O)c2ccc3c(c2)C(CCC3)NC(=O)[C@H](CC(=O)O)NC(=O)CNC(=O)[C@H](CCCNC(=N)N)N(C)C1=O` (single isomer, unassigned) [Example 89b, cyclo-(D-Val-NMeArg-Gly-Asp-aminotetralincarboxylic acid)], less than 1000 nM.
The value for `CN1C(=O)CNC(=O)c2cccc(c2)CNC(=O)[C@H](CC(=O)O)NC(=O)CNC(=O)[C@@H]1CCCNC(=N)N` [Example 1, cyclo-(Gly-NMeArg-Gly-Asp-Mamb)] (cyclo([NMeR]GD[3Amb]G)) was less than 1000 nM; that for `C[C@H]1NC(=O)c2cccc(c2)CNC(=O)[C@H](CC(=O)O)NC(=O)CNC(=O)[C@H](CCCNC(=N)N)N(C)C1=O` [Example 2, cyclo-(D-Ala-NMeArg-Gly-Asp-Mamb)] (cyclo([NMeR]GD[3Amb][dA])) was less than 1000 nM.
The value for `CC(C)[C@H]1NC(=O)c2cccc(c2)CNC(=O)[C@H](CC(=O)O)NC(=O)CNC(=O)[C@@H](CCCNC(=N)N)N(C)C1=O` [Example 4b, cyclo-(D-Val-D-NMeArg-Gly-Asp-Mamb)] was 1000 to 10000 nM.
Compound `CC(C)C[C@H]1NC(=O)c2cccc(c2)CNC(=O)[C@H](CC(=O)O)NC(=O)CNC(=O)[C@H](CCCNC(=N)N)N(C)C1=O` [Example 5, cyclo-(D-Leu-NMeArg-Gly-Asp-Mamb)] (cyclo([NMeR]GD[3Amb][dL])) had an IC50 of less than 1000 nM.
As for `CCCC[C@H]1NC(=O)c2cccc(c2)CNC(=O)[C@H](CC(=O)O)NC(=O)CNC(=O)[C@H](CCCNC(=N)N)N(C)C1=O` [Example 7, cyclo-(D-Nle-NMeArg-Gly-Asp-Mamb)] (cyclo([NMeR]GD[3Amb][dNle])), the figure is less than 1000 nM; as for `CN1C(=O)[C@@H](c2ccccc2)NC(=O)c2cccc(c2)CNC(=O)[C@H](CC(=O)O)NC(=O)CNC(=O)[C@@H]1CCCNC(=N)N` [Example 11, cyclo-(D-Phg-NMeArg-Gly-Asp-Mamb)] (cyclo([NMeR]GD[3Amb][dPhg])), less than 1000 nM; as for `CN1C(=O)[C@@H](Cc2ccccc2)NC(=O)c2cccc(c2)CNC(=O)[C@H](CC(=O)O)NC(=O)CNC(=O)[C@@H]1CCCNC(=N)N` [Example 12, cyclo-(D-Phe-NMeArg-Gly-Asp-Mamb)] (cyclo([NMeR]GD[3Amb][dF])), less than 1000 nM.
As for `CN1C(=O)[C@@H](CCCCN)NC(=O)c2cccc(c2)CNC(=O)[C@H](CC(=O)O)NC(=O)CNC(=O)[C@@H]1CCCNC(=N)N` [Example 13f, cyclo-(D-Lys-NMeArg-Gly-Asp-Mamb)] (cyclo([NMeR]GD[3Amb][dK])), the IC50 was less than 1000 nM.
`CC[C@@H](C)[C@H]1NC(=O)c2cccc(c2)CNC(=O)[C@H](CC(=O)O)NC(=O)CNC(=O)[C@H](CCCNC(=N)N)N(C)C1=O` [Example 13r, cyclo-(D-Ile-NMeArg-Gly-Asp-Mamb)] (cyclo([NMeR]GD[3Amb][dI])) displayed a half-inhibitory concentration (IC50) of less than 1000 nM.
As for `CN1CC(=O)N(C)[C@@H](CCCNC(=N)N)C(=O)NCC(=O)N[C@@H](CC(=O)O)C(=O)NCc2cccc(c2)C1=O` [Example 18, cyclo-(NMeGly-NMeArg-Gly-Asp-Mamb)] (cyclo([NMeR]GD[3Amb][Sar])), the figure is less than 1000 nM.
Compound `CN1C(=O)[C@H]2CCCN2C(=O)c2cccc(c2)CNC(=O)[C@H](CC(=O)O)NC(=O)CNC(=O)[C@@H]1CCCNC(=N)N` [Example 25, cyclo-(D-Pro-NMeArg-Gly-Asp-Mamb)] (cyclo([NMeR]GD[3Amb][dP])) had a half-maximal inhibitory concentration (IC50) of less than 1000 nM.
The value for `CN1C(=O)CCNC(=O)c2cccc(c2)CNC(=O)[C@H](CC(=O)O)NC(=O)CNC(=O)[C@@H]1CCCNC(=N)N` [Example 28c, cyclo-(b-Ala-NMeArg-Gly-Asp-Mamb)] (cyclo([NMeR]GD[3Amb][βAla])) was less than 1000 nM; that for `CN1C(=O)[C@@H](Cc2ccc(O)cc2)NC(=O)c2cccc(c2)CNC(=O)[C@H](CC(=O)O)NC(=O)CNC(=O)[C@@H]1CCCNC(=N)N` [Example 28f, cyclo-(D-Tyr-NMeArg-Gly-Asp-Mamb)] (cyclo([NMeR]GD[3Amb][dY])) was less than 1000 nM; that for `N=C(N)NCCC[C@@H]1NC(=O)CNC(=O)c2cccc(c2)CNC(=O)[C@H](CC(=O)O)NC(=O)CNC1=O` [Example 29, cyclo-(Gly-Arg-Gly-Asp-Mamb)] (cyclo(RGD[3Amb]G)) was 1000 to 10000 nM.
As for `C[C@H]1NC(=O)c2cccc(c2)CNC(=O)[C@H](CC(=O)O)NC(=O)CNC(=O)[C@H](CCCNC(=N)N)NC1=O` [Example 30, cyclo-(D-Ala-Arg-Gly-Asp-Mamb)] (cyclo(RGD[3Amb][dA])), the figure is 1000 to 10000 nM; as for `CC(C)[C@H]1NC(=O)c2cccc(c2)CNC(=O)[C@H](CC(=O)O)NC(=O)CNC(=O)[C@H](CCCNC(=N)N)NC1=O` [Example 32, cyclo-(D-Val-Arg-Gly-Asp-Mamb)], 1000 to 10000 nM.
The value for `CC(C)C[C@H]1NC(=O)c2cccc(c2)CNC(=O)[C@H](CC(=O)O)NC(=O)CNC(=O)[C@H](CCCNC(=N)N)NC1=O` [Example 33, cyclo-(D-Leu-Arg-Gly-Asp-Mamb)] (cyclo(RGD[3Amb][dL])) was 1000 to 10000 nM; that for `CC[C@H]1NC(=O)c2cccc(c2)CNC(=O)[C@H](CC(=O)O)NC(=O)CNC(=O)[C@H](CCCNC(=N)N)NC1=O` [Example 34, cyclo-(D-Abu-Arg-Gly-Asp-Mamb)] (cyclo(RGD[3Amb][dAbu])) was 1000 to 10000 nM.
`N=C(N)NCCC[C@@H]1NC(=O)[C@@H](CO)NC(=O)c2cccc(c2)CNC(=O)[C@H](CC(=O)O)NC(=O)CNC1=O` [Example 35, cyclo-(D-Ser-Arg-Gly-Asp-Mamb)] (cyclo(RGD[3Amb][dS])) showed an IC50 of 1000 to 10000 nM.
As for `N=C(N)NCCC[C@@H]1NC(=O)[C@@H](Cc2ccccc2)NC(=O)c2cccc(c2)CNC(=O)[C@H](CC(=O)O)NC(=O)CNC1=O` [Example 36, cyclo-(D-Phe-Arg-Gly-Asp-Mamb)] (cyclo(RGD[3Amb][dF])), the figure is 10000 to 100000 nM; as for `N=C(N)NCCC[C@@H]1NC(=O)[C@H](Cc2ccccc2)NC(=O)c2cccc(c2)CNC(=O)[C@H](CC(=O)O)NC(=O)CNC1=O` [Example 37, cyclo-(Phe-Arg-Gly-Asp-Mamb)] (cyclo(RGD[3Amb]F)), 10000 to 100000 nM; as for `CC(C)[C@H]1NC(=O)c2cccc(c2)CNC(=O)[C@H](CC(=O)O)NC(=O)CNC(=O)[C@H](Cc2ccc(CN)cc2)N(C)C1=O` [Example 40, cyclo-(D-Val-NMeAmf-Gly-Asp-Mamb)] (cyclo([dV][NMePhe(4-CH2NH2)]GD[3Amb])), less than 1000 nM.
The value for `CC(C)[C@H]1NC(=O)c2cccc(c2)CNC(=O)[C@H](CC(=O)O)NC(=O)CCNC(=O)[C@H](CCCNC(=N)N)N(C)C1=O` [Example 54, cyclo-(D-Val-NMeArg-b-Ala-Asp-Mamb)] (cyclo([3Amb][dV][NMeR][βAla]D)) was 1000 to 10000 nM; that for `CC(C)[C@H]1NC(=O)c2cccc(c2)CNC(=O)[C@H](CC(=O)O)NC(=O)[C@H](C)NC(=O)[C@H](CCCNC(=N)N)N(C)C1=O` [Example 58c, cyclo-(D-Val-NMeArg-L-Ala-Asp-Mamb)] (cyclo([3Amb][dV][NMeR]AD)) was 10000 to 100000 nM; that for `CC(C)[C@H]1NC(=O)c2cccc(c2)CNC(=O)[C@H](CC(=O)O)N(C)C(=O)CNC(=O)[C@H](CCCNC(=N)N)N(C)C1=O` [Example 64b, cyclo-(D-Val-NMeArg-Gly-NMeAsp-Mamb)] was 1000 to 10000 nM.
The value for `CC(C)[C@H]1NC(=O)c2cccc(c2)CNC(=O)[C@@H](CC(=O)O)NC(=O)CNC(=O)[C@H](CCCNC(=N)N)N(C)C1=O` [Example 64c, cyclo-(D-Val-NMeArg-Gly-D-Asp-Mamb)] was 1000 to 10000 nM.
The compound `CC(C)[C@H]1NC(=O)c2ccc3cccc(c3c2)CNC(=O)[C@H](CC(=O)O)NC(=O)CNC(=O)[C@H](CCCNC(=N)N)N(C)C1=O` [Example 89c, cyclo-(D-Val-NMeArg-Gly-Asp-aminomethylnaphthoic acid)] returned an IC50 of 1000 to 10000 nM.
The value for `CC[C@H]1NC(=O)c2ccc(I)c(c2)CNC(=O)[C@H](CC(=O)O)NC(=O)CNC(=O)[C@H](CCCNC(=N)N)N(C)C1=O` [Example 89d, cyclo-(D-Abu-NMeArg-Gly-Asp-iodo-Mamb)] (cyclo([NMeR]GD[X5][dAbu])) was less than 1000 nM; that for `CC[C@H]1NC(=O)c2cccc(c2)CNC(=O)[C@H](CC(=O)O)NC(=O)CNC(=O)[C@H](CCCNC)N(C)C1=O` [Example 89e, cyclo-(D-Abu-di-NMeOrn-Gly-Asp-Mamb)] (cyclo([dAbu][NMeOrn(Me)]GD[3Amb])) was 1000 to 10000 nM.
Turning to `CC(C)[C@H]1NC(=O)c2ccccc2CNC(=O)[C@H](CC(=O)O)NC(=O)CNC(=O)[C@H](CCCNC(=N)N)N(C)C1=O` [Example 91, cyclo-(D-Val-NMeArg-Gly-Asp-2-aminomethylbenzoic acid)], the half-maximal inhibitory concentration (IC50) was less than 1000 nM.
With `CC(C)[C@H]1NC(=O)Cc2cccc(c2)NC(=O)[C@H](CC(=O)O)NC(=O)CNC(=O)[C@H](CCCNC(=N)N)N(C)C1=O` [Example 92, cyclo-(D-Val-NMeArg-Gly-Asp-3-aminophenylacetic acid)], the IC50 is less than 1000 nM.
Compound `CC(C)[C@H]1NC(=O)c2ccc(Cl)c(c2)CNC(=O)[C@H](CC(=O)O)NC(=O)CNC(=O)[C@H](CCCNC(=N)N)N(C)C1=O` [Example 93, cyclo-(D-Val-NMeArg-Gly-Asp-3-aminomethyl-4-chlorobenzoic acid)] had a concentration for half-maximal inhibition (IC50) of less than 1000 nM.
The value for `CC(C)[C@H]1NC(=O)c2ccc(I)c(c2)CNC(=O)[C@H](CC(=O)O)NC(=O)CNC(=O)[C@H](CCCNC(=N)N)N(C)C1=O` [Example 94, cyclo-(D-Val-NMeArg-Gly-Asp-iodo-Mamb)] was less than 1000 nM.
